According to publication PMC9841531, “Indole Derivatives as New Structural Class of Potent and Antiproliferative Inhibitors of Monocarboxylate Transporter 1 (MCT1; SLC16A1)” (Journal of Medicinal Chemistry, 2022):

Legend:
[1] = molecular target: T1, MCT1 (Homo sapiens, UniProt P53985); assay: functional 3-BP cell viability assay (MCT1 transport inhibition); format: cell-based; conditions: MCT1-expressing A-549 cells, 50 μM 3-BP, 72 h; read-out: MCT1 transport inhibition IC50 ± SEM
T1 construct: MCT1-expressing A-549 cells[14],[15] were exposed to the MCT1 substrate 3-BP, which becomes influxed by MCT1; endogenous in cells; host or cells: A-549 lung cancer cells (from NCCS, Pune)
T1 sequence (P53985 1-500): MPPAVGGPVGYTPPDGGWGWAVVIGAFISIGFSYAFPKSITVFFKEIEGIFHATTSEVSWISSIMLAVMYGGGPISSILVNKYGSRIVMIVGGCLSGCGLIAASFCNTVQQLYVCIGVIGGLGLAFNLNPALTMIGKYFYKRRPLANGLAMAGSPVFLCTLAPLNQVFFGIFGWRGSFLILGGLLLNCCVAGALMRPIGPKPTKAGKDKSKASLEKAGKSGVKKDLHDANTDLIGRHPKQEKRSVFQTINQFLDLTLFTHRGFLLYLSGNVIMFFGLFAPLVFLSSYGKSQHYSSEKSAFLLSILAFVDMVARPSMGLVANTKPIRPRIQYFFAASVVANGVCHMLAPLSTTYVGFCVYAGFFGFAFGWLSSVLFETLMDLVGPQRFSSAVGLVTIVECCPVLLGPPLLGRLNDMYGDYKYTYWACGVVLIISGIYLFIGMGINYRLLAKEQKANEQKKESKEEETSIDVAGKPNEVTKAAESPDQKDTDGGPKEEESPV
T1 sequence (P35613 140-385 partner limits assumed): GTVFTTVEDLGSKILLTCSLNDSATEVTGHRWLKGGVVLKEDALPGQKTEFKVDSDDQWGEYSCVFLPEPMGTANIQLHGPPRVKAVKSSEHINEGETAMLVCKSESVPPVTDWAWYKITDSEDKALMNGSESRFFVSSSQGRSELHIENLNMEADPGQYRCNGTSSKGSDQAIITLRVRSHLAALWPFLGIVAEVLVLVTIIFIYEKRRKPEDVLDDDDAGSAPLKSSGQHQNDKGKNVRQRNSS
Experimental: The inhibitory activity of indole derivatives against MCT1 was determined by applying a functional 3-bromopyruvate (3-BP) cell viability assay, as described in the literature[20],[39] with minor modifications. In short, MCT1-expressing A-549 cells[14],[15] were exposed to the MCT1 substrate 3-BP, which becomes influxed by MCT1. 3-BP is toxic, leading to decreased cell viability. Functional inhibition of MCT1 results in reduced intracellular 3-BP levels and, thus, enhanced cell viability compared to no inhibition. […] Table 1 provides the half-maximal inhibition concentration (IC50) values of compounds 17–32.
A functional 3-BP cytotoxicity assay was conducted as described in the literature[20],[39] with minor modifications. Dilution series of compounds 17–32 between 1 nM and 1 μM were prepared in DPBS (Cell Clone, Genetix Biotech Asia, New Delhi India), and 10 μL of each concentration was pipetted into a colorless flat-bottom 96-well microplate (SPL Life Sciences, Gyeonggi-do, Republic of Korea). One hundred and eighty microliters of a cell suspension (5000 cells/well) of A-549 cells was added, and subsequently, 10 μL of 3-BP was added at a concentration of 1 mM (final concentration per well: 50 μM). The plate was kept for 72 h at 37 °C under a 5% CO2-humidified atmosphere. Cell viability was determined as described before[43] by adding 20 μL of a 5 mg/mL solution of MTT to each well and further incubation for 1 h. Eventually, the supernatant was removed and 100 μL of DMSO was added to each well. The absorbance was spectrophotometrically determined at 570 nm using a SpectraMax iD3 multi-mode microplate reader (Molecular Devices, San Jose, CA) with a background correction (690 nm). The determined absorbance values were correlated to the logarithmic concentrations of compounds 17–32, and IC50 values were calculated applying nonlinear regression using GraphPad Prism (version 8.4.0., San Diego, CA).

[2] = test system: A-549 cancer cells; assay: MTT-based cell viability assay, A-549; conditions: Homo sapiens, A549, 72 h, read-out: A-549 cancer cell toxicity GI50 ± SEM
Excerpt: (§1) MCT1-expressing cells have an extraordinary energy demand and rely on pyruvate metabolism, through either lactate conversion or pyruvate consumption. Inhibition of MCT1 blocks lactate and pyruvate influx into cancer cells, which prevents their processing in the TCA cycle. Over time, the viability of cells exposed to an MCT1 inhibitor is impaired due to pyruvate deprivation, which is compensated by upregulating glucose metabolism—leading to an overconsumption of glucose. To confirm the antiproliferative nature of the indole derivatives, we investigated the compounds toward the MCT1-expressing cell lines A-549[14],[15] and MCF-7.[16] Cancer cell viability was assessed via a 3-(4,5-dimethylthiazol-2-yl)-2,5-diphenyltetrazolium bromide (MTT) assay, as reported earlier.[43]
(§2) To determine the growth inhibitory potential of compounds 17–32, […] of each compound either at concentrations between 1 and 100 μM (A-549 or MCF-7) or at 10 and 50 μM (NIH/3T3) was pipetted into colorless flat-bottom 96-well microplates. Thereafter, 180 μL of a cell suspension (5000 cells/well) of either A-549, MCF-7, or NIH/3T3 cells was added and subsequently kept for 72 h at 37 °C under a 5% CO2-humidified atmosphere. The cell viability as well as the GI50 values were determined as described above.[43]

[3] = test system: MCF-7 cancer cells; assay: MTT-based cell viability assay, MCF-7; conditions: Homo sapiens, MCF7, 72 h, read-out: MCF-7 cancer cell toxicity GI50 ± SEM
Excerpt: as §1, §2

[4] = molecular target: T1, MCT1; conditions: cited from earlier work
[5] = molecular target: ABCC1 (Homo sapiens, UniProt P33527); assay: daunorubicin assay, ABCC1-expressing H69AR cells; conditions: for inhibition at 10 µM: H69AR, read-out: inhibition of ABCC1 in screening; for IC50: read-out: ABCC1 daunorubicin IC50 ± SEM, H69AR cells, 22, 23 constrained to reference inhibitor 35; for ABCC1 inhibition: screening at 10 μM, inhibitor if 20% (+SEM) reached
Chain of ABCC1 (P33527 whole entry): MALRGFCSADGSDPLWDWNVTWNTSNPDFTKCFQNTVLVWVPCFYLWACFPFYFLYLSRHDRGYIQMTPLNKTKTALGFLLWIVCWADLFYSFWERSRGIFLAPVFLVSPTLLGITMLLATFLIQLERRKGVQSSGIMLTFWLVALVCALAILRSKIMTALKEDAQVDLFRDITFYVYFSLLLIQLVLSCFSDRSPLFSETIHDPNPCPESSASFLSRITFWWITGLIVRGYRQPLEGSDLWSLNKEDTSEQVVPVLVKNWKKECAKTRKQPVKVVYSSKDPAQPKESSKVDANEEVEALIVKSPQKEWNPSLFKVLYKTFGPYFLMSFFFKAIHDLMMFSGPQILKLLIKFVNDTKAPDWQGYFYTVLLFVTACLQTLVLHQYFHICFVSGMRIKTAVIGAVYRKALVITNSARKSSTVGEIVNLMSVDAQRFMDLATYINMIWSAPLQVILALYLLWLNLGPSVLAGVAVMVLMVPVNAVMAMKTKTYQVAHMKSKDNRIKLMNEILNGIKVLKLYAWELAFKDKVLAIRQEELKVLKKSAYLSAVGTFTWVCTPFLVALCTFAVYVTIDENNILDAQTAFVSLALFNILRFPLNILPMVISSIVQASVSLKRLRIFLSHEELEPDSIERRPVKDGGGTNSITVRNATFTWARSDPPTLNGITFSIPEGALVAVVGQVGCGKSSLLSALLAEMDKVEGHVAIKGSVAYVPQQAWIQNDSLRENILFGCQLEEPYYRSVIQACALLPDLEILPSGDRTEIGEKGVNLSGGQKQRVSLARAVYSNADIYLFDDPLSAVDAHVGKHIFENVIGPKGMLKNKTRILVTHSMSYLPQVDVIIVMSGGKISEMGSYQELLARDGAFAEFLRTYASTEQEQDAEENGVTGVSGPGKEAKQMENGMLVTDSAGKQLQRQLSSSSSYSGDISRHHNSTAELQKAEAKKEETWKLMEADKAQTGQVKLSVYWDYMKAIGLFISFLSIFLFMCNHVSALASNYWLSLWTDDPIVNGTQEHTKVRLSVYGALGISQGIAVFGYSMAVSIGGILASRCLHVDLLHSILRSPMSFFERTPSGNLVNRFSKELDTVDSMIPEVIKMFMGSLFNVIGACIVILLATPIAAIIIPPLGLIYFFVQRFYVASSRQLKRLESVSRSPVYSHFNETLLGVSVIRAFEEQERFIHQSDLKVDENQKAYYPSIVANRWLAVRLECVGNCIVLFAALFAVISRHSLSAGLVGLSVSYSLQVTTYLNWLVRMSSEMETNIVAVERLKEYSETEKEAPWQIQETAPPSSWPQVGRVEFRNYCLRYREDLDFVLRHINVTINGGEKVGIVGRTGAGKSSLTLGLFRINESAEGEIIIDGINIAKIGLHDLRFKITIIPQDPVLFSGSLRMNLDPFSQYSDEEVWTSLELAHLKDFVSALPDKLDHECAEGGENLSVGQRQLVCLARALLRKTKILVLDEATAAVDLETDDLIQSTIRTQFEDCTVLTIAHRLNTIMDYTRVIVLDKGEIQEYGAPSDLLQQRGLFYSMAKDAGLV
Excerpt: (§3) To provide a detailed picture of the pharmacological profile of the indole derivatives, we investigated their modulatory nature on the most prominent ABC transporters ABCB1 (P-glycoprotein, P-gp), ABCC1, (multidrug resistance-associated protein 1, MRP1), and ABCG2 (breast cancer resistance protein, BCRP). Here, we conducted calcein AM (ABCB1),[2],[52]−[59] daunorubicin (ABCC1),[52],[58]−[60] and pheophorbide A (ABCG2)[2],[52]−[60] assays using ABCB1-expressing A2780/ADR, ABCC1-expressing H69AR, and ABCG2-expressing MDCK II BCRP cells, respectively.
(§4) The calcein AM (ABCB1),[2],[52]−[59] daunorubicin (ABCB1[52],[60] and ABCC1[52],[58]−[60]), and pheophorbide A (ABCG2)[2],[52]−[60] assays were conducted as reported earlier. […] The data was processed using GraphPad Prism version 8.4.0, and IC50 values were determined, applying three- or four-parameter logistic equations, whatever was statistically preferred.

[6] = molecular target: T2, ABCB1 (Homo sapiens, UniProt P08183); assay: calcein AM assay, ABCB1-expressing A2780/ADR cells; conditions: for IC50: read-out: ABCB1 calcein AM IC50 ± SEM, A2780/ADR cells, 22, 23 constrained to reference inhibitor 34; for ABCB1 inhibition: screening at 10 μM, inhibitor if 20% (+SEM) reached
T2 sequence (P08183 whole entry): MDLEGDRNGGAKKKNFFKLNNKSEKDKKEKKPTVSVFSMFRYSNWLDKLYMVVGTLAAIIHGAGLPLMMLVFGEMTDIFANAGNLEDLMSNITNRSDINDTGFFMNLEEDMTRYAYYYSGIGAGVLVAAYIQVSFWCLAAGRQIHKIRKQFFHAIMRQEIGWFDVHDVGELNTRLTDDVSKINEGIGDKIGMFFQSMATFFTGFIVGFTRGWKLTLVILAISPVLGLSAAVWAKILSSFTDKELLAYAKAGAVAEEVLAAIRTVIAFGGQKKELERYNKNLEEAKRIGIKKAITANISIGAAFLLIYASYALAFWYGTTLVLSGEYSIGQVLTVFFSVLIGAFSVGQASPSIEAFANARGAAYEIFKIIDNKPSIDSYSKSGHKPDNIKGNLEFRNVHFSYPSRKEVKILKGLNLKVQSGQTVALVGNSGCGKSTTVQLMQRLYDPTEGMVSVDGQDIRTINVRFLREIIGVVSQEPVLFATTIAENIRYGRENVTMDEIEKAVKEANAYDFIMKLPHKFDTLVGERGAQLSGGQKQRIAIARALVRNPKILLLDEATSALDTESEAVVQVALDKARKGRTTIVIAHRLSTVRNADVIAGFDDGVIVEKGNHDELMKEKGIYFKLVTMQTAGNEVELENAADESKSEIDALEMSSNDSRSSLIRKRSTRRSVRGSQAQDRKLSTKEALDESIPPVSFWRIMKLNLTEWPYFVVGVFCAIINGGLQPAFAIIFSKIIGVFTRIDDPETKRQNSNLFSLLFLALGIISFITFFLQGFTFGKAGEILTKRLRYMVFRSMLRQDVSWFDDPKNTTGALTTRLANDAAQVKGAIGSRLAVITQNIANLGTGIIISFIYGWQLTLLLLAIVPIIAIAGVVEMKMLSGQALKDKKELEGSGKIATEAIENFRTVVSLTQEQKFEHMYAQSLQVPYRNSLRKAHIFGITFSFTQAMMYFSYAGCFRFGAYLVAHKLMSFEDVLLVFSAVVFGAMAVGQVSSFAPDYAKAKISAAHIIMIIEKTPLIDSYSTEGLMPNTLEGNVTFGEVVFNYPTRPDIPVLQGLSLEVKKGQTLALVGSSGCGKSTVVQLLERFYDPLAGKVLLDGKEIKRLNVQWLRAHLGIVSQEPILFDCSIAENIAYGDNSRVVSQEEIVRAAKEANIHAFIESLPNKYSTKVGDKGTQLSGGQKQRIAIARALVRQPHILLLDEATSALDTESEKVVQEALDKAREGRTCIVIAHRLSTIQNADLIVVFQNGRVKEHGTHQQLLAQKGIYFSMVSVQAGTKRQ
Excerpt: as §3, §4

[7] = molecular target: T3, ABCG2 (BCRP) (Homo sapiens, UniProt Q9UNQ0); assay: pheophorbide A assay, ABCG2-expressing MDCK II BCRP cells; conditions: human, ABCG2-expressing MDCK II BCRP cells, probe pheophorbide A (0.5 μM final)
T3 sequence (Q9UNQ0 1-655): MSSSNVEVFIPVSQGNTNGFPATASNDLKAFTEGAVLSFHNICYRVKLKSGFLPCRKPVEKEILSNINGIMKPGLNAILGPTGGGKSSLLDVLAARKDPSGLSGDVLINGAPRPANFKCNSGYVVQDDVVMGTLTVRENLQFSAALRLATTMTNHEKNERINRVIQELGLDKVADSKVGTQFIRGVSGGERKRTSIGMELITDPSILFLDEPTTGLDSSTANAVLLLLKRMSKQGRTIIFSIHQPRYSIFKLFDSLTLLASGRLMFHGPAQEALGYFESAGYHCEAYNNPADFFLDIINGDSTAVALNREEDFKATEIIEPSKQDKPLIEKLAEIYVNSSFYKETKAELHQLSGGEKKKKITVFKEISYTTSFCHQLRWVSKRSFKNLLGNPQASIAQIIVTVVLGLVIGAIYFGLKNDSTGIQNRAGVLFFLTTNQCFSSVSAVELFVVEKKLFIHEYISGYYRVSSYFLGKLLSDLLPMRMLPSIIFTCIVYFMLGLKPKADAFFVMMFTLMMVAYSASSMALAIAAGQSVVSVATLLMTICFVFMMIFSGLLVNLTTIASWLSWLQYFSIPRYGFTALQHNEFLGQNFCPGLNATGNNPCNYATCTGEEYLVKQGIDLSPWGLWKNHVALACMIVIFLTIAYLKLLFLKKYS
Excerpt: as §3, §4

[8] = molecular target: T4, ABCG2 (Homo sapiens, UniProt Q9UNQ0); assay: as above; conditions: for ABCG2 inhibition: screening at 10 μM, inhibitor if 20% (+SEM) reached
T4 sequence (Q9UNQ0 1-655): T3 sequence (Q9UNQ0 1-655)
Excerpt: as §3, §4

[9] = molecular target: T2, ABCB1; assay: daunorubicin assay, ABCB1-expressing A2780/ADR cells; format: cell-based; conditions: A2780/ADR cells; read-out: ABCB1 daunorubicin IC50 ± SEM
[10] = molecular target: ABCB1 (P-glycoprotein, P-gp) (Homo sapiens, UniProt P08183); assay: as above; format: cell-based; conditions: human, ABCB1-expressing A2780/ADR cells, probe daunorubicin (3 μM final); relative to reference inhibitor 34 = 100%; read-out: maximal inhibition (Imax), ABCB1 daunorubicin
Chain of ABCB1 (P-glycoprotein, P-gp) (P08183 whole entry): as the sequence (P08183 whole entry) above

## N#C/C(=C\c1ccc(O)cc1)C(=O)O [Compound 8, reference compound]
[1]
  IC50: 87.2 ± 3.5 nM
[2]
  GI50: 52.7 ± 0.2 µM
[3]
  GI50: 108 ± 3 µM
[4]
  inhibitory power (MCT1) in the literature: submillimolar to low micromolar concentration ranges

## COC(=O)/C(C#N)=C/c1cn(CC(=O)Nc2ccccc2OC)c2ccccc12 [Compound 22, Methyl-2-cyano-3-(1-(2-((2-methoxyphenyl)amino)-2-oxoethyl)-1H-indol-3-yl) Acrylate]
[1]
  IC50: 135 ± 2 nM
[2]
  GI50: 26 ± 0.3 µM
[3]
  GI50: 19.1 ± 0.5 µM
[5]
  inhibition at 10 µM: ≥ 20%
  IC50: 17.3 ± 2.2 µM
  ABCC1 inhibition: X (Compounds were considered as inhibitors if they reached 20% (+SEM) inhibition compared to the reference inhibitors 33–35; X = fulfilled)
[6]
  IC50: 24.3 ± 6.4 µM
  ABCB1 inhibition: X (Compounds were considered as inhibitors if they reached 20% (+SEM) inhibition compared to the reference inhibitors 33–35; X = fulfilled)
[7]
  inhibition at 120 min, 10 μM: ≥ 20%
[8]
  IC50: 99.5 ± 24.5 µM
  ABCG2 inhibition: X (Compounds were considered as inhibitors if they reached 20% (+SEM) inhibition compared to the reference inhibitors 33–35; X = fulfilled)

## COC(=O)/C(C#N)=C/c1cn(CC(=O)Nc2cccc(OC)c2)c2ccccc12 [Compound 23, Methyl-2-cyano-3-(1-(2-((3-methoxyphenyl)amino)-2-oxoethyl)-1H-indol-3-yl) Acrylate]
[1]
  IC50: 105 ± 9 nM
[2]
  GI50: 25.5 ± 0.5 µM
[3]
  GI50: 14.7 ± 0.2 µM
[5]
  inhibition at 10 µM: ≥ 20%
  IC50: 19.1 ± 3.4 µM
  ABCC1 inhibition: X (Compounds were considered as inhibitors if they reached 20% (+SEM) inhibition compared to the reference inhibitors 33–35; X = fulfilled)
[6]
  IC50: 5.32 ± 1.67 µM
  ABCB1 inhibition: X (Compounds were considered as inhibitors if they reached 20% (+SEM) inhibition compared to the reference inhibitors 33–35; X = fulfilled)
[7]
  inhibition at 120 min, 10 μM: ≥ 20%
[8]
  IC50: 43.5 ± 7.5 µM
  ABCG2 inhibition: X (Compounds were considered as inhibitors if they reached 20% (+SEM) inhibition compared to the reference inhibitors 33–35; X = fulfilled)

## COC(=O)/C(C#N)=C/c1cn(CC(=O)Nc2ccc(Br)cn2)c2ccccc12 [Compound 31, Methyl-3-(1-(2-((5-bromopyridin-2-yl)amino)-2-oxoethyl)-1H-indol-3-yl)-2-cyanoacrylate]
[1]
  IC50: 214 ± 32 nM
[2]
  GI50: 18.8 ± 0.2 µM
[3]
  GI50: 3.13 ± 0.23 µM
[9]
  IC50: 1190 ± 120 nM
[10]
  inhibition at 180 min: 39%
[5]
  ABCC1 inhibition: X (Compounds were considered as inhibitors if they reached 20% (+SEM) inhibition compared to the reference inhibitors 33–35; X = fulfilled)
[6]
  IC50: 1.4 ± 0.11 µM
  ABCB1 inhibition: X (Compounds were considered as inhibitors if they reached 20% (+SEM) inhibition compared to the reference inhibitors 33–35; X = fulfilled)
